Assay results: patent publication US12195427B2, “MASP-2 inhibitors and methods of use” (priority 2018, dated 2025)
Structures can show the parent of a compound that is named as a salt.

Molecular target: MASP-2 CCP2-SP (Homo sapiens (Human), UniProt O00187)
Experiment: MASP-2 co-crystallization, X-ray crystallography and structure analysis (H-bonds, van der Waals contacts);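 as to Ligand-pharmacophore element distance, pharmacophore element C2: distance from averaged pharmacophore element to bound ligand; missing value means element absent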;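 as to Ligand-pharmacophore element distance, pharmacophore element C3: distance from averaged pharmacophore element to bound ligand; missing value means element absent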;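 as to Ligand-pharmacophore element distance, pharmacophore element C4: distance from averaged pharmacophore element to bound ligand; missing value means element absent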;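 as to Ligand-pharmacophore element distance, pharmacophore element C5: distance from averaged pharmacophore element to bound ligand; missing value means element absent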
Design: van der Waals contact distance, MASP-2 HIS 483 atom CD2 / van der Waals contact distance, MASP-2 HIS 483 atom NE2 / van der Waals contact distance, SER 654 C to compound atom / van der Waals contact distance, SER 654 O to compound atom / van der Waals contact distance, TRP 655 C to compound atom / van der Waals contact distance, MASP-2 GLY 528 atom CA / van der Waals contact distance TRP 655 atom CZ3 / van der Waals contact distance TRP 655 atom N / van der Waals contact distance TRP 655 atom CE3 / van der Waals contact distance GLY 656 atom C / van der Waals contact distance GLY 656 atom CA / van der Waals contact distance GLY 656 atom O / van der Waals contact distance, MASP-2 TYR 607 atom CD1 / van der Waals contact distance, MASP-2 PRO 606 atom O / d(C3,CA1) / d(CA1,N1)2 / d(H4,O1) / d(H4,O2) / d(O1,O2) / d(CA1,O2) / d(CA6,O1) / d(CA6,O2) / d(CA1,C5) / d(O2,H3) / d(N2,C2) / d(CA5,N2) / d(N2,C4) / d(N2,C6) / d(N2,CA3) / d(N2,O3) / d(O4,H2): unit not given beside the values
Details: for H-bond distance to MASP-2 GLY 656 atom N: GLY 656 N; for H-bond distance to MASP-2 SER 654 atom O: SER 654 O; for van der Waals contact distance, VAL 653 CG1 to compound atom: Table A2-11
Procedure, shortened: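 Inhibitor complexes were obtained by soaking crystals of E. coli-expressed human MASP-2 CCP2-SP constructs, then flash-cooling in liquid nitrogen. Structures solved by molecular replacement (1Q3X search model) from synchrotron diffraction; where several poses existed, only one was analyzed, and nonbonded contacts listed can include H-bonds.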

[1] = Table A2-9, ARG 630, AA atoms CG, CZ
[2] = Table A5-1 pharmacophore: distance between elements, S2/S1 region
[3] = Table A5-2 pharmacophore distance, S3/S4 region
[4] = Table A7-1, between pharmacophore elements of the bound compound

MASP-2 CCP2-SP, sequence (O00187 445-686): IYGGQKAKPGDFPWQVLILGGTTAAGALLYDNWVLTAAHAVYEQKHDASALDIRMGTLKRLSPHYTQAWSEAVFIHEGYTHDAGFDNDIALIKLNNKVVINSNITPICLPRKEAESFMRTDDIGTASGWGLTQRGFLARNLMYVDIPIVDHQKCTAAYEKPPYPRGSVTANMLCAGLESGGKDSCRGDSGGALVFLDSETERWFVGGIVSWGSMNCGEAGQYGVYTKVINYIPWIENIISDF
MASP-2 CCP2-SP, sequence (O00187 364-432 partner): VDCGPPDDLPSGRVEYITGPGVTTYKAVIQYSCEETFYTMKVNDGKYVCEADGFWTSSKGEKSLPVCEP

With `N=C(N)c1ccc(CNC(=O)C(CF)NC(=O)[C@H](N)CCc2ccccc2)cc1` (stereo partly drawn) [compound 1050, (2R)-2-Amino-N-(1-((4-carbamimidoylbenzyl)amino)-3-fluoro-1-oxopropan-2-yl)-4-phenylbutanamide Dihydrochloride] the “H-bond distance to MASP-2 GLY 656 atom N” value (Table A1 (H-Bonds)) was 3.18, the “H-bond distance to MASP-2 GLY 656 atom O” value (Table A1 (H-Bonds), GLY 656 O) was 2.58 and the “H-bond distance to MASP-2 SER 654 atom O” value (Table A1 (H-Bonds)) was 3.03. For the same compound, the “H-bond distance to MASP-2 SER 657 atom O” value (Table A1 (H-Bonds), SER 657 O) was 2.86, the “van der Waals contact distance, MASP-2 PHE 529 atom CD1” value (Table A2-3) was 3.61 and the “van der Waals contact distance, MASP-2 PHE 529 atom CE1” value (Table A2-3) was 3.56. The “van der Waals contact distance, MASP-2 PHE 529 atom CZ” value (Table A2-3) was 3.88, the “van der Waals contact distance, MASP-2 amino acid atom to compound atom” value (Table A2-5: TYR 607 (CE1, CE2, OH), PRO 608 (CD, CG), SER 611 (CA)) was 3.68 and the “van der Waals contact distance, MASP-2 amino acid atom to compound atom” value [1] was 3.66. The “van der Waals contact distance, MASP-2 amino acid atom to compound atom” value (Table A2-9 second part, ARG 630, AA atoms N, NE, NH1) was 3.66, the “van der Waals contact distance, VAL 653 CG1 to compound atom” value was 3.74 and the “van der Waals contact distance, SER 654 O to compound atom” value (Table A2-12) was 3.72. For the same compound, the “van der Waals contact distance TRP 655 atom CZ3” value (Table A2-13, MASP-2 TRP 655 CZ3) was 3.81, the “van der Waals contact distance TRP 655 atom N” value (Table A2-13, MASP-2 TRP 655 N) was 3.74 and the “Ligand-pharmacophore element distance, pharmacophore element C2” value (Table A4-1, element C2) was 6.95. The “Ligand-pharmacophore element distance, pharmacophore element C3” value (Table A4-1, element C3) was 0, the “Ligand-pharmacophore element distance, pharmacophore element C4” value (Table A4-1, element C4) was 0 and the “Ligand-pharmacophore element distance, pharmacophore element C5” value (Table A4-1, element C5) was 0. The “Ligand-pharmacophore element distance, pharmacophore element C6” value (Table A4-1, element C6) was 0, the “Ligand-pharmacophore element distance, pharmacophore element C7” value (Table A4-1, element C7) was 0 and the “Ligand-pharmacophore element distance, pharmacophore element CA1” value (Table A4-1, element CA1) was 0.57. The “Ligand-pharmacophore element distance, pharmacophore element CA2” value (Table A4-1, element CA2) was 0.33, the “Ligand-pharmacophore element distance, pharmacophore element CA3” value (Table A4-1, element CA3) was 0 and the “Ligand-pharmacophore element distance, pharmacophore element CA4” value (Table A4-1, element CA4) was 0. For the same compound, the “Ligand-pharmacophore element distance, pharmacophore element CA5” value (Table A4-1, element CA5) was 0, the “Ligand-pharmacophore element distance, pharmacophore element CA6” value (Table A4-1, element CA6) was 0 and the “d(CA1,N1)” value [2] was 3.47. The “d(CA1,O1)” value [2] was 4.10, the “d(CA1,O2)” value [2] was 4.29 and the “d(H4,O1)” value [2] was 4.58. For the same compound, the “d(H4,O2)” value [2] was 4.38, the “d(O1,O2)” value [2] was 3.01 and the “d(N2,C2)” value [3] was 6.69. For the same compound, the “d(N2,CA2)” value [3] was 5.73, the “d(O2,H3)” value [3] was 2.72 and the “d(O2,N2)” value [3] was 2.76. The “a(CA1, O1, O2)” value (Table A6-1 pharmacophore angle) was 114.34, the “a(O1, O2, H4)” value (Table A6-1 pharmacophore angle) was 140.76 and the “A(N1, CA1, O1) a)” value (Table A6-1 pharmacophore angle, all compounds with protonatable center N1 except Methyl-amino-pyridine) was 160.78. For the same compound, the “a(O1, O2, H3)” value (Table A6-2 pharmacophore angle) was 137.51, the “a(O1, O2, N2)” value (Table A6-2 pharmacophore angle) was 140.97 and the “a(O2, N2, C2)” value (Table A6-2 pharmacophore angle) was 159.29. The “a(O2, N2, CA2)” value (Table A6-2 pharmacophore angle) was 153.66, the “Pharmacophore torsion angle a(H4, O1, O2, H3)” value [4] was 102.21 and the “Pharmacophore torsion angle a(H4, O1, O2, N2)” value [4] was 123.45. For the same compound, the “Pharmacophore torsion angle a(N1, CA1, O2, H4)” value [4] was −131.38, the “Pharmacophore torsion angle a(O1, H4, O2, CA1)” value [4] was −58.32 and the “Pharmacophore torsion angle a(O1, O2, N2, C2)” value [4] was 66.94. For the same compound, the “Pharmacophore torsion angle a(O1, O2, N2, CA2)” value (Table A7-2, between pharmacophore elements of the bound compound) was 147.29.
In the case of `C[C@H](NC(=O)[C@H]1C[C@@H](c2ccccc2)CCN1)C(=O)NCc1cc(Cl)ccc1O` [compound 1078], the “H-bond distance to MASP-2 ARG 630 atom NH1 (second bond)” value (Table A1 (H-Bonds), ARG 630 NH1) was 3.25, the “H-bond distance to MASP-2 ARG 630 atom NH1” value (Table A1 (H-Bonds), ARG 630 NH1, first column) was 2.92 and the “H-bond distance to MASP-2 GLY 656 atom N” value (Table A1 (H-Bonds)) was 3.14. The “H-bond distance to MASP-2 SER 654 atom O” value (Table A1 (H-Bonds)) was 2.66, the “van der Waals contact distance, MASP-2 HIS 483 atom CD2” value (Table A2-1) was 3.35 and the “van der Waals contact distance, MASP-2 HIS 483 atom NE2” value (Table A2-1) was 3.28. For the same compound, the “van der Waals contact distance, MASP-2 amino acid atom to compound atom” value [1] was 3.78 and the “van der Waals contact distance, VAL 653 CG1 to compound atom” value was 3.49.
